38 compounds from patent publication US7781591B2, “Substituted 3-cyanopyridines as protein kinase inhibitors” (Wyeth LLC, priority 2006, dated 2010) can be followed below.

In this assay the target is T1, human PKCθ full length enzyme (Homo sapiens, UniProt Q04759).
T1 construct: human PKCθ full length enzyme (Panvera Cat# P2996); purchased Panvera P2996
Put plainly: PKCθ IMAP assay (fluorescence polarization). Type of assay: biochemical. To be noted: human PKCθ full length enzyme, IMAP; average value; read-out: IC50 PKCθ IMAP.

T1 sequence (Q04759 whole entry): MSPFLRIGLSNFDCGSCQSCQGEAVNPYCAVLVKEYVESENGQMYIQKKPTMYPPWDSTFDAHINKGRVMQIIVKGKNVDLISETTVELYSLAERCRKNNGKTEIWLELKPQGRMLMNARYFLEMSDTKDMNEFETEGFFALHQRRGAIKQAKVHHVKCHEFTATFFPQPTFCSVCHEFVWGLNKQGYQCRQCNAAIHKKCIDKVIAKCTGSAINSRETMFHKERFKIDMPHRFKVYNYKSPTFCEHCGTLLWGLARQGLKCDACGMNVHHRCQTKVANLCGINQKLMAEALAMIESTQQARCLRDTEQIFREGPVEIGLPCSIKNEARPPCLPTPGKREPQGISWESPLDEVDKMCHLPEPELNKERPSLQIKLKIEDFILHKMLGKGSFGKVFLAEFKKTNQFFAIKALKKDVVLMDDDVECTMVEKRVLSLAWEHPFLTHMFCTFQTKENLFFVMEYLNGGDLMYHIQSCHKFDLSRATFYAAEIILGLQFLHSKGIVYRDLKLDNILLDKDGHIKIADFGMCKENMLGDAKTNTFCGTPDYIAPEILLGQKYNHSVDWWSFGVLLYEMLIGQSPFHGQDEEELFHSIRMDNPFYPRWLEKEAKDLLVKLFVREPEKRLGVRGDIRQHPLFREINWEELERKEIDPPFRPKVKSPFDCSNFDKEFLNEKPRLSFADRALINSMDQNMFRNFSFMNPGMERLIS

Take `N#Cc1cncc(-c2cc3cc(CNC4CC4)ccc3s2)c1Nc1cccc2[nH]ccc12` [Compound 278, 5-{5-[(cyclopropylamino)methyl]-1-benzothien-2-yl}-4-(1H-indol-4-ylamino)nicotinonitrile]: the IC50 came to 2 nM. Take `N#Cc1cncc(-c2cc3cc(CNCC4CC4)ccc3s2)c1Nc1cccc2[nH]ccc12` [Compound 279, 5-(5-{[(cyclopropylmethyl)amino]methyl}-1-benzothien-2-yl)-4-(1H-indol-4-ylamino)nicotinonitrile]: the half-maximal inhibitory concentration (IC50) stood at 1 nM. For `N#Cc1cncc(-c2cc3cc(CN4CCCC4)ccc3s2)c1Nc1cccc2[nH]ccc12` [Compound 280, 4-(1H-indol-4-ylamino)-5-[5-(pyrrolidin-1-ylmethyl)-1-benzothien-2-yl]nicotinonitrile] the value was 4 nM. Next, `N#Cc1cncc(-c2cc3cc(CN4CCOCC4)ccc3s2)c1Nc1cccc2[nH]ccc12` [Compound 281, 4-(1H-indol-4-ylamino)-5-[5-(morpholin-4-ylmethyl)-1-benzothien-2-yl]nicotinonitrile]: 10 nM; `N#Cc1cncc(-c2cc3cc(CNCCN4CCOCC4)ccc3s2)c1Nc1cccc2[nH]ccc12` [Compound 282, 4-(1H-indol-4-ylamino)-5-(5-{[(2-morpholin-4-ylethyl)amino]methyl}-1-benzothien-2-yl)nicotinonitrile]: 3 nM. For `N#Cc1cncc(-c2cc3cc(CN4CCCCC4)ccc3s2)c1Nc1cccc2[nH]ccc12` [Compound 283, 4-(1H-indol-4-ylamino)-5-[5-(piperidin-1-ylmethyl)-1-benzothien-2-yl]nicotinonitrile] the value was 2 nM; for `N#Cc1cncc(-c2cc3cc(CN4CCC(CO)CC4)ccc3s2)c1Nc1cccc2[nH]ccc12` [Compound 284, 5-(5-{[4-(hydroxymethyl)piperidin-1-yl]methyl}-1-benzothien-2-yl)-4-(1H-indol-4-ylamino)nicotinonitrile], 4 nM; for `N#Cc1cncc(-c2cc3cc(CO)ccc3s2)c1Nc1cccc2[nH]ccc12` [Compound 285, 5-[5-(hydroxymethyl)-1-benzothien-2-yl]-4-(1H-indol-4-ylamino)nicotinonitrile], 4 nM. As to `N#Cc1cncc(-c2cc3cc(CNCc4ccccc4)ccc3s2)c1Nc1cccc2[nH]ccc12` [Compound 286, 5-{5-[(benzylamino)methyl]-1-benzothien-2-yl}-4-(1H-indol-4-ylamino)nicotinonitrile], the IC50 is 1 nM. As for `N#Cc1cncc(-c2cc3cc(CNCCc4ccccc4)ccc3s2)c1Nc1cccc2[nH]ccc12` [Compound 287, 4-(1H-indol-4-ylamino)-5-(5-{[(2-phenylethyl)amino]methyl}-1-benzothien-2-yl)nicotinonitrile], the half-maximal inhibitory concentration (IC50) was 3 nM. Next, `N#Cc1cncc(-c2cc3cc(CNCc4ccccn4)ccc3s2)c1Nc1cccc2[nH]ccc12` [Compound 288, 4-(1H-indol-4-ylamino)-5-(5-{[(pyridin-2-ylmethyl)amino]methyl}-1-benzothien-2-yl)nicotinonitrile]: 3 nM; `N#Cc1cncc(-c2cc3cc(CNCc4cccnc4)ccc3s2)c1Nc1cccc2[nH]ccc12` [Compound 289, 4-(1H-indol-4-ylamino)-5-(5-{[(pyridin-3-ylmethyl)amino]methyl}-1-benzothien-2-yl)nicotinonitrile]: 4 nM. As to `N#Cc1cncc(-c2cc3cc(CNCc4ccncc4)ccc3s2)c1Nc1cccc2[nH]ccc12` [Compound 290, 4-(1H-indol-4-ylamino)-5-(5-{[(pyridin-4-ylmethyl)amino]methyl}-1-benzothien-2-yl)nicotinonitrile], the IC50 was 4 nM. For the compound `CN(C)c1ccc(-c2cncc(C#N)c2Nc2cccnc2)cc1` [Compound 291, 5-[4-(dimethylamino)phenyl]-4-(pyridin-3-ylamino)nicotinonitrile], the IC50 is 4860 nM. Regarding `CN(C)c1ccc(-c2cncc(C#N)c2Nc2ccc3[nH]ncc3c2)cc1` [Compound 292, 5-[4-(dimethylamino)phenyl]-4-(1H-indazol-5-ylamino)nicotinonitrile], the IC50 is 13200 nM.

As to `CN(C)c1ccc(-c2cncc(C#N)c2Nc2ccc3cn[nH]c3c2)cc1` [Compound 293, 5-[4-(dimethylamino)phenyl]-4-(1H-indazol-6-ylamino)nicotinonitrile], the 50% inhibitory concentration (IC50) was determined as 36000 nM.

For the compound `CN(C)c1ccc(-c2cncc(C#N)c2Nc2cc(O)[nH]n2)cc1` [Compound 294, 5-[4-(dimethylamino)phenyl]-4-[(5-hydroxy-1H-pyrazol-3-yl)amino]nicotinonitrile], the IC50 was found to be 33400 nM. As to `COc1cccc(-c2cncc(C#N)c2Nc2ccc3[nH]ncc3c2)c1` [Compound 295, 4-(1H-indazol-5-ylamino)-5-(3-methoxyphenyl)nicotinonitrile], the IC50 was 2950 nM.

`COc1cccc(-c2cncc(C#N)c2Nc2ccc3cn[nH]c3c2)c1` [Compound 296, 4-(1H-indazol-6-ylamino)-5-(3-methoxyphenyl)nicotinonitrile]: the IC50 worked out at 16200 nM. As for `Cc1c(Nc2c(C#N)cncc2-c2cccc(Br)c2)ccc2[nH]ccc12` [Compound 298, 5-(3-bromophenyl)-4-[(4-methyl-1H-indol-5-yl)amino]nicotinonitrile], the half-maximal inhibitory concentration (IC50) is 4 nM. As for `COc1ccc(-c2cncc(C#N)c2Nc2cccc3[nH]ccc23)cc1OCCN1CCOCC1` [Compound 299, 4-(1H-indol-4-ylamino)-5-[4-methoxy-3-(2-morpholin-4-ylethoxy)phenyl]nicotinonitrile], the half-maximal inhibitory concentration (IC50) came out at 30 nM. For `COc1ccc(-c2cncc(C#N)c2Nc2cccc3[nH]ccc23)cc1OCCN1CCN(C)CC1` [Compound 300, 4-(1H-indol-4-ylamino)-5-{4-methoxy-3-[2-(4-methylpiperazin-1-yl)ethoxy]phenyl}nicotinonitrile] the value was 20 nM. Next, `COc1ccc(-c2cncc(C#N)c2Nc2cccc3[nH]ccc23)cc1OCCN(C)C` [Compound 301, 5-{3-[2-(dimethylamino)ethoxy]-4-methoxyphenyl}-4-(1H-indol-4-ylamino)nicotinonitrile]: 50 nM; `COc1ccc(-c2cncc(C#N)c2Nc2cccc3[nH]ccc23)cc1OCCN1CCC(O)CC1` [Compound 302, 5-{3-[2-(4-hydroxypiperidin-1-yl)ethoxy]-4-methoxyphenyl}-4-(1H-indol-4-ylamino)nicotinonitrile]: 30 nM; `COc1ccc(-c2cncc(C#N)c2Nc2cccc3[nH]ccc23)cc1OCCCl` [Compound 303, 5-[3-(2-chloroethoxy)-4-methoxyphenyl]-4-(1H-indol-4-ylamino)nicotinonitrile]: 40 nM.

On to `Cc1c(Nc2c(C#N)cncc2-c2cccc(-c3cccs3)c2)ccc2[nH]ccc12` [Compound 304, 4-[(4-methyl-1H-indol-5-yl)amino]-5-[3-(2-thienyl)phenyl]nicotinonitrile], for which the IC50 was determined as 110 nM.

Turning to `CCc1c(Nc2c(C#N)cncc2-c2ccc(OC)c(OC)c2)ccc2[nH]ccc12` [Compound 305, 5-(3,4-dimethoxyphenyl)-4-[(4-ethyl-1H-indol-5-yl)amino]nicotinonitrile], the IC50 was 60 nM. Next, `Cc1c(Nc2c(C#N)cncc2-c2cccc(-c3ccc(C=O)s3)c2)ccc2[nH]ccc12` [Compound 306, 5-[3-(5-formyl-2-thienyl)phenyl]-4-[(4-methyl-1H-indol-5-yl)amino]nicotinonitrile]: 60 nM; `N#Cc1cncc(-c2cccc(-c3ccc(C(=O)NCCCCO)cc3)c2)c1Nc1cccc2[nH]ccc12` [Compound 308, 3′-[5-cyano-4-(1H-indol-4-ylamino)pyridin-3-yl]-N-(4-hydroxybutyl)biphenyl-4-carboxamide]: 30 nM; `Cc1c(Nc2c(C#N)cncc2-c2cccc(-c3ccc(C(=O)NCCCCO)cc3)c2)ccc2[nH]ccc12` [Compound 309, 3′-{5-cyano-4-[(4-methyl-1H-indol-5-yl)amino]pyridin-3-yl}-N-(4-hydroxybutyl)biphenyl-4-carboxamide]: 120 nM.

Regarding `N#Cc1cncc(-c2cccc(C(F)(F)F)c2)c1Nc1cccc2[nH]ccc12` [Compound 310, 4-(1H-indol-4-ylamino)-5-[3-(trifluoromethyl)phenyl]nicotinonitrile], the IC50 turned out to be 20 nM. Next, `N#Cc1cccc(-c2cncc(C#N)c2Nc2cccc3[nH]ccc23)c1` [Compound 311, 5-(3-cyanophenyl)-4-(1H-indol-4-ylamino)nicotinonitrile]: 20 nM; `CN(C)C(=O)c1cccc(-c2cncc(C#N)c2Nc2cccc3[nH]ccc23)c1` [Compound 312, 3-[5-cyano-4-(1H-indol-4-ylamino)pyridin-3-yl]-N,N-dimethylbenzamide]: 600 nM. Take `CN(C)S(=O)(=O)c1cccc(-c2cncc(C#N)c2Nc2cccc3[nH]ccc23)c1` [Compound 313, 3-[5-cyano-4-(1H-indol-4-ylamino)pyridin-3-yl]-N,N-dimethylbenzenesulfonamide]: the IC50 turned out to be 20 nM.

With `N#Cc1cncc(-c2cccc(C(N)=O)c2)c1Nc1cccc2[nH]ccc12` [Compound 314, 3-[5-cyano-4-(1H-indol-4-ylamino)pyridin-3-yl]benzamide], the IC50 amounted to 100 nM. Regarding `CN(C)Cc1ccc(-c2cccc(-c3cncc(C#N)c3Nc3cccc4[nH]ccc34)c2)s1` [Compound 315, 5-(3-{5-[(dimethylamino)methyl]-2-thienyl}phenyl)-4-(1H-indol-4-ylamino)nicotinonitrile], the IC50 amounted to 10 nM.

With `CN(C)S(=O)(=O)c1ccccc1-c1cncc(C#N)c1Nc1cccc2[nH]ccc12` [Compound 316, 2-[5-cyano-4-(1H-indol-4-ylamino)pyridin-3-yl]-N,N-dimethylbenzenesulfonamide], the IC50 stood at 1350 nM. Turning to `CS(=O)(=O)Nc1ccc(-c2cncc(C#N)c2Nc2cccc3[nH]ccc23)cc1` [Compound 317, N-{4-[5-cyano-4-(1H-indol-4-ylamino)pyridin-3-yl]phenyl}methanesulfonamide], the IC50 was found to be 20 nM.
